In ChEMBL document CHEMBL4219219, “The synthesis and antistaphylococcal activity of N-sulfonaminoethyloxime derivatives of dehydroabietic acid” (Bioorg Med Chem Lett, 2018) one finds Activity and MIC data, which are given here for 23 compounds.

Assay [1] has as its system Escherichia coli. Description: Antibacterial activity against Escherichia coli AB1157 at 50 ug/ml after 18 hrs by two-fold serial dilution method. It is filed as functional, organism-based.
Assay [2] has as its system Staphylococcus aureus. Description: Antistaphylococcal activity against Staphylococcus aureus Newman after 18 hrs by two-fold serial dilution method. Type of assay: functional.
The test system of assay [3] is Staphylococcus aureus. Description: Antistaphylococcal activity against aminoglycosides/tetracycline-resistant Staphylococcus aureus NRS-1 after 18 hrs by two-fold serial dilution method. Type of assay: functional. To be noted: NRS-1, 18 h.
Assay [4] relates to Staphylococcus aureus. Description: Antistaphylococcal activity against erythromycin-resistant Staphylococcus aureus NRS-70 after 18 hrs by two-fold serial dilution method. To be noted: NRS-70, 18 h. It is filed as functional.
In assay [5] the test system is Staphylococcus aureus. Description: Antistaphylococcal activity against oxacillin/tetracycline-resistant Staphylococcus aureus NRS-100 after 18 hrs by two-fold serial dilution method. It is filed as functional. To be noted: NRS-100, 18 h.
The subject of assay [6] is Staphylococcus aureus. Description: Antistaphylococcal activity against gentamicin-resistant Staphylococcus aureus NRS-108 after 18 hrs by two-fold serial dilution method. Type of assay: functional. To be noted: NRS-108, 18 h.
Assay [7] has as its system Staphylococcus aureus. Description: Antistaphylococcal activity against linezolid-resistant Staphylococcus aureus NRS-271 containing phage type E-MRSA 15 after 18 hrs by two-fold serial dilution method. Type of assay: functional. To be noted: NRS-271, 18 h.

Molecules are shown by their SMILES. Converted amounts (≈) assume the structure as drawn. The source made the active and inactive calls. No cut-off for these calls is given here.

In the case of `CC(C)c1cc2c(cc1Br)[C@@]1(C)CCC[C@@](C)(C(=O)O)[C@@H]1C/C2=N\OCCNS(=O)(=O)c1cccs1`, the result in assay [1] was inactive.
For `CC(C)c1cc2c(cc1Br)[C@@]1(C)CCC[C@@](C)(C(=O)O)[C@@H]1C/C2=N\OCCNS(=O)(=O)c1ccc2ccccc2c1`, the outcome in assay [1] was inactive. The MIC in assay [2] was in the range of 1.56 to 3.13 µg/mL (≈ 2.43 to 4.88 µM); in assay [3] it was 3.13 to 6.25 µg/mL (≈ 4.88 to 9.74 µM); in assay [4], 1.56 to 3.13 µg/mL (≈ 2.43 to 4.88 µM); in assay [5], 3.13 to 6.25 µg/mL (≈ 4.88 to 9.74 µM); in assay [6], 1.56 to 3.13 µg/mL (≈ 2.43 to 4.88 µM); in assay [7], 3.13 to 6.25 µg/mL (≈ 4.88 to 9.74 µM).
`CCCS(=O)(=O)NCCO/N=C1\C[C@H]2[C@](C)(C(=O)O)CCC[C@]2(C)c2cc(Br)c(C(C)C)cc21`: the result in assay [1] was inactive. In assay [2], this compound showed an MIC of 12.5 to 25 µg/mL (≈ 22.4 to 44.8 µM).
On to `CC(C)c1cc2c(cc1Br)[C@@]1(C)CCC[C@@](C)(C(=O)O)[C@@H]1C/C2=N\OCCNS(=O)(=O)c1cccc(Cl)c1`, for which the result in assay [1] was inactive. Also, the MIC in assay [2] lay in the range of 0.78 to 1.56 µg/mL (≈ 1.25 to 2.49 µM); in assay [3], 1.56 to 3.13 µg/mL (≈ 2.49 to 5 µM); in assay [4] it was 0.78 to 1.56 µg/mL (≈ 1.25 to 2.49 µM); in assay [5], 1.56 to 3.13 µg/mL (≈ 2.49 to 5 µM); in assay [6], 1.56 to 3.13 µg/mL (≈ 2.49 to 5 µM); in assay [7] it was 1.56 to 3.13 µg/mL (≈ 2.49 to 5 µM).
For `CC(C)c1cc2c(cc1Br)[C@@]1(C)CCC[C@@](C)(C(=O)O)[C@@H]1C/C2=N\OCCN`, in assay [1], the result was inactive. In assay [2], this compound came in with an MIC above 50 µg/mL.
With `Cc1ccc(S(=O)(=O)NCCO/N=C2\C[C@H]3[C@](C)(C(=O)O)CCC[C@]3(C)c3cc(Br)c(C(C)C)cc32)cc1`, in assay [1], the result was inactive. In addition, the MIC in assay [2] fell in the range of 1.56 to 3.13 µg/mL (≈ 2.58 to 5.17 µM); in assay [3], 3.13 to 6.25 µg/mL (≈ 5.17 to 10.3 µM); in assay [4], 1.56 to 3.13 µg/mL (≈ 2.58 to 5.17 µM); in assay [5] it was 3.13 to 6.25 µg/mL (≈ 5.17 to 10.3 µM); in assay [6], 1.56 to 3.13 µg/mL (≈ 2.58 to 5.17 µM); in assay [7] it was 3.13 to 6.25 µg/mL (≈ 5.17 to 10.3 µM).
As to `CC(C)c1ccc2c(c1)CC[C@H]1[C@](C)(C(=O)O)CCC[C@]21C` [DEHYDROABIETIC ACID], the MIC lay within 12.5 to 20 µg/mL (≈ 41.6 to 66.6 µM) in assay [2]; 12.5 to 25 µg/mL (≈ 41.6 to 83.2 µM) in assay [3]; 12.5 to 25 µg/mL (≈ 41.6 to 83.2 µM) in assay [4]; 12.5 to 25 µg/mL (≈ 41.6 to 83.2 µM) in assay [5]; 12.5 to 25 µg/mL (≈ 41.6 to 83.2 µM) in assay [6]; 12.5 to 25 µg/mL (≈ 41.6 to 83.2 µM) in assay [7].
For the compound `Cc1ccc(C)c(S(=O)(=O)NCCO/N=C2\C[C@H]3[C@](C)(C(=O)O)CCC[C@]3(C)c3cc(Br)c(C(C)C)cc32)c1`, in assay [1], the result was inactive. The MIC in assay [2] lay in the range of 1.56 to 3.13 µg/mL (≈ 2.52 to 5.05 µM); in assay [3] it was 3.13 to 6.25 µg/mL (≈ 5.05 to 10.1 µM); in assay [4] it was 0.78 to 1.56 µg/mL (≈ 1.26 to 2.52 µM); in assay [5], 1.56 to 3.13 µg/mL (≈ 2.52 to 5.05 µM); in assay [6], 1.56 to 3.13 µg/mL (≈ 2.52 to 5.05 µM); in assay [7], 3.13 to 6.25 µg/mL (≈ 5.05 to 10.1 µM).
On to `CC(C)c1cc2c(cc1Br)[C@@]1(C)CCC[C@@](C)(C(=O)O)[C@@H]1C/C2=N\OCCNS(=O)(=O)c1ccccc1C(F)(F)F`, for which, in assay [1], the outcome was inactive. The compound also returned an MIC in assay [2] above 50 µg/mL.
Take `CC(C)c1cc2c(cc1Br)[C@@]1(C)CCC[C@@](C)(C(=O)O)[C@@H]1C/C2=N\OCCNS(=O)(=O)c1ccc(Br)cc1`: the result in assay [1] was inactive. The MIC in assay [2], in assay [3], in assay [4], in assay [5], in assay [6] and in assay [7] was 0.78 to 1.56 µg/mL (≈ 1.16 to 2.33 µM) each time.
For the compound `CC(C)c1cc2c(cc1Br)[C@@]1(C)CCC[C@@](C)(C(=O)O)[C@@H]1C/C2=N\OCCNS(=O)(=O)c1ccc(Cl)cc1Cl`, the result in assay [1] was inactive. For the same compound, the MIC lay in the range of 0.78 to 1.56 µg/mL (≈ 1.18 to 2.36 µM) in assay [2]; 0.78 to 1.56 µg/mL (≈ 1.18 to 2.36 µM) in assay [3]; 0.39 to 0.78 µg/mL (≈ 0.59 to 1.18 µM) in assay [4]; 0.78 to 1.56 µg/mL (≈ 1.18 to 2.36 µM) in assay [5]; 0.78 to 1.56 µg/mL (≈ 1.18 to 2.36 µM) in assay [6]; 0.78 to 1.56 µg/mL (≈ 1.18 to 2.36 µM) in assay [7].
On to `CC(C)c1cc2c(cc1Br)[C@@]1(C)CCC[C@@](C)(C(=O)O)[C@@H]1C/C2=N\OCCNS(=O)(=O)c1ccc(Cl)s1`, for which the outcome in assay [1] was inactive. Further, the MIC in assay [2] lay within 1.56 to 3.13 µg/mL (≈ 2.47 to 4.95 µM); in assay [3] it was 1.56 to 3.13 µg/mL (≈ 2.47 to 4.95 µM); in assay [4], 0.78 to 1.56 µg/mL (≈ 1.23 to 2.47 µM); in assay [5], 1.56 to 3.13 µg/mL (≈ 2.47 to 4.95 µM); in assay [6], 1.56 to 3.13 µg/mL (≈ 2.47 to 4.95 µM); in assay [7], 1.56 to 3.13 µg/mL (≈ 2.47 to 4.95 µM).
Turning to `CC(C)c1cc2c(cc1Br)[C@@]1(C)CCC[C@@](C)(C(=O)O)[C@@H]1C/C2=N\OCCNS(=O)(=O)c1ccc(Cl)nc1`, the result in assay [1] was inactive. For the same compound, in assay [2], the MIC lay in the range of 3.13 to 6.25 µg/mL (≈ 4.99 to 9.97 µM).
As for `CN[C@H](CC(C)C)C(=O)N[C@H]1C(=O)N[C@@H](CC(N)=O)C(=O)N[C@H]2C(=O)N[C@H]3C(=O)N[C@H](C(=O)N[C@H](C(=O)O)c4cc(O)cc(O)c4-c4cc3ccc4O)[C@H](O)c3ccc(c(Cl)c3)Oc3cc2cc(c3O[C@@H]2O[C@H](CO)[C@@H](O)[C@H](O)[C@H]2O[C@H]2C[C@](C)(N)[C@H](O)[C@H](C)O2)Oc2ccc(cc2Cl)[C@H]1O` [VANCOMYCIN], the MIC in assay [2] is 0.78 to 1.56 µg/mL (≈ 0.538 to 1.08 µM); in assay [3], 1.56 to 3.13 µg/mL (≈ 1.08 to 2.16 µM); in assay [4], 0.2 to 0.39 µg/mL (≈ 0.138 to 0.269 µM); in assay [5], 0.39 to 0.78 µg/mL (≈ 0.269 to 0.538 µM); in assay [6], 0.39 to 0.78 µg/mL (≈ 0.269 to 0.538 µM); in assay [7], 0.39 to 0.78 µg/mL (≈ 0.269 to 0.538 µM).
Take `CC(C)c1cc2c(cc1Br)[C@@]1(C)CCC[C@@](C)(C(=O)O)[C@@H]1C/C2=N\OCCNS(=O)(=O)c1ccc(C(C)(C)C)cc1`: the result in assay [1] was inactive. This compound also came in with an MIC in assay [2] of 3.13 to 6.25 µg/mL (≈ 4.83 to 9.65 µM).
In the case of `CC(C)c1cc2c(cc1Br)[C@@]1(C)CCC[C@@](C)(C(=O)O)[C@@H]1C/C2=N\OCCNS(=O)(=O)c1cccc(C(F)(F)F)c1`, the result in assay [1] was inactive. In addition, the MIC in assay [2] was in the range of 0.39 to 0.78 µg/mL (≈ 0.591 to 1.18 µM); in assay [3] it was 1.56 to 3.13 µg/mL (≈ 2.37 to 4.75 µM); in assay [4], 0.78 to 1.56 µg/mL (≈ 1.18 to 2.37 µM); in assay [5], 1.56 to 3.13 µg/mL (≈ 2.37 to 4.75 µM); in assay [6], 0.78 to 1.56 µg/mL (≈ 1.18 to 2.37 µM); in assay [7], 1.56 to 3.13 µg/mL (≈ 2.37 to 4.75 µM).
Regarding `CC(C)c1cc2c(cc1Br)[C@@]1(C)CCC[C@@](C)(C(=O)O)[C@@H]1C/C2=N\OCCNS(=O)(=O)c1cccnc1`, in assay [1], the result was inactive. Further, in assay [2], the MIC lay in the range of 3.13 to 6.25 µg/mL (≈ 5.28 to 10.5 µM).
The matching figures for `CC(C)c1cc2c(cc1Br)[C@@]1(C)CCC[C@@](C)(C(=O)O)[C@@H]1C/C2=N\OCCNS(=O)(=O)C1CC1`: “inactive” and 6.25 to 12.5 µg/mL (≈ 11.3 to 22.5 µM).
On the same counts, the results for `CC(C)c1cc2c(cc1Br)[C@@]1(C)CCC[C@@](C)(C(=O)O)[C@@H]1C/C2=N\OCCNS(=O)(=O)c1cc(F)c(F)c(F)c1` are “inactive” and above 50 µg/mL.
The matching figures for `CC(C)c1cc2c(cc1Br)[C@@]1(C)CCC[C@@](C)(C(=O)O)[C@@H]1C/C2=N\OCCNS(=O)(=O)c1c(F)cccc1F`: “inactive” and above 50 µg/mL.
Regarding `CN(C)[C@@H]1C(O)=C(C(N)=O)C(=O)[C@@]2(O)C(O)=C3C(=O)c4c(O)cccc4[C@@](C)(O)[C@H]3C[C@@H]12` [TETRACYCLINE], the MIC is below 0.2 µg/mL in assay [2]; above 25 µg/mL in assay [3]; below 0.2 µg/mL in assay [4]; below 0.2 µg/mL in assay [5]; below 0.2 µg/mL in assay [6]; below 0.2 µg/mL in assay [7].
With `COc1ccc(S(=O)(=O)NCCO/N=C2\C[C@H]3[C@](C)(C(=O)O)CCC[C@]3(C)c3cc(Br)c(C(C)C)cc32)cc1`, in assay [1], the outcome was inactive. The MIC in assay [2] was in the range of 3.13 to 6.25 µg/mL (≈ 5.04 to 10.1 µM).
As for `CCS(=O)(=O)NCCO/N=C1\C[C@H]2[C@](C)(C(=O)O)CCC[C@]2(C)c2cc(Br)c(C(C)C)cc21`, in assay [1], the outcome was inactive. The MIC in assay [2] lay within 12.5 to 25 µg/mL (≈ 23 to 46 µM).
